Results as given in paper PMC8775867, “The Systems of Naringenin with Solubilizers Expand Its Capability to Prevent Neurodegenerative Diseases” (International Journal of Molecular Sciences, 2022).
≈ marks a conversion by molar mass, not a printed value.

Target: T1, tyrosinase
T1 construct: gene PPO3
Assay: L-DOPA oxidation, absorbance […] nm
Assay type: biochemical
Details: L-DOPA substrate, phosphate buffer pH 6.8, room temperature

IC50 [mg/mL]	IC50 (NAR in DMSO) [mg/mL]	Compound
5.883 ± 0.023 (≈ 31.3 mM)		O=C(O)CCCCCCCC(=O)O [azelaic acid]
	4.615 ± 0.089 (≈ 17 mM)	O=C1C[C@@H](c2ccc(O)cc2)Oc2cc(O)cc(O)c21 [naringenin]
